Laboratory results taken from PubChem BioAssay AID330 (DTP/NCI, 2004).
Several values for one entry are separate records, joined by “and”; a condition that tells them apart may be missing. Equal values may be shown once. Toxic doses and inconclusive results are not listed.

Tested on: P388 leukemia ip, CD2F1 mice, survival T/C
Assay: NCI In Vivo Anticancer Drug Screen. Data for tumor model P388 Leukemia (intraperitoneal) in CD2F1 (CDF1) mice
Conditions: endpoint: median survival time, higher = longer survival
Method in brief: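 Mice carrying the transplanted tumor received test compound or vehicle. Survival was recorded in each group, and the value is the treated-group measurement divided by that of the vehicle-treated control group.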

[1] = dose: 12.5 mg/kg/injection, schedule: Q01DX005 (ip), vehicle: saline with Tween-80
[2] = dose: 25.0 mg/kg/injection, schedule: Q01DX005 (ip), vehicle: saline with Tween-80
[3] = dose: 50.0 mg/kg/injection, schedule: Q01DX005 (ip), vehicle: saline with Tween-80
[4] = dose: 12.5 mg/kg/injection, schedule: Q01DX009 (ip), vehicle: saline
[5] = dose: 25.0 mg/kg/injection, schedule: Q01DX009 (ip), vehicle: saline
[6] = dose: 50.0 mg/kg/injection, schedule: Q01DX009 (ip), vehicle: saline
[7] = dose: 100.0 mg/kg/injection, schedule: Q01DX009 (ip), vehicle: saline
[8] = dose: 50.0 mg/kg/injection, schedule: Q01DX009 (ip), vehicle: saline with Tween-80
[9] = dose: 100.0 mg/kg/injection, schedule: Q01DX009 (ip), vehicle: saline with Tween-80
[10] = dose: 60.0 mg/kg/injection, schedule: Q01DX005 (ip), vehicle: saline with Tween-80
[11] = dose: 100.0 mg/kg/injection, schedule: Q01DX005 (ip), vehicle: saline with Tween-80
[12] = dose: 200.0 mg/kg/injection, schedule: Q01DX005 (ip), vehicle: saline with Tween-80
[13] = dose: 50.0 mg/kg/injection, schedule: Q01DX005 (ip), vehicle: Klucel (hydroxypropylcellulose) (HPC)
[14] = dose: 100.0 mg/kg/injection, schedule: Q01DX005 (ip), vehicle: Klucel (hydroxypropylcellulose) (HPC)
[15] = dose: 200.0 mg/kg/injection, schedule: Q01DX005 (ip), vehicle: Klucel (hydroxypropylcellulose) (HPC)

C=C1C(=O)CCC1/C=C\C (configuration not stated)
T/C [1]: 111 % of control
T/C [2]: 110 % of control
T/C [3]: 99 % of control

Cn1cc(CCc2cc[n+](CCC[n+]3ccc(CCc4cn(C)c5ccccc45)cc3)cc2)c2ccccc21
T/C (dose: 6.25 mg/kg/injection, schedule: Q01DX009 (ip), vehicle: Klucel (hydroxypropylcellulose) (HPC)): 104 % of control
T/C (dose: 12.5 mg/kg/injection, schedule: Q01DX009 (ip), vehicle: Klucel (hydroxypropylcellulose) (HPC)): 106 % of control

CC([NH-])C(=O)O.[Cl][Pt][Cl] (configuration not stated)
T/C [4]: 106 % of control
T/C (dose: 25.0 mg/kg/injection, schedule: Q01DX009 (ip), vehicle: distilled water + Tween-80): 154 % of control
T/C [5]: 113 % of control
T/C [6]: 123 % of control
T/C [7]: 123 % of control

COc1c2occc2c(S(N)(=O)=O)c2ccc(=O)oc12
T/C (dose: 25.0 mg/kg/injection, schedule: Q01DX009 (ip), vehicle: saline with Tween-80): 106 % of control
T/C [8]: 103 % of control
T/C [9]: 106 % of control

c1ccc(C2(c3ccc(C4(c5ccccc5)Oc5ccccc5S4)[nH]3)Oc3ccccc3S2)cc1 (configuration not stated)
T/C [10]: 96 % of control
T/C (dose: 120.0 mg/kg/injection, schedule: Q01DX005 (ip), vehicle: saline with Tween-80): 107 % of control

Nc1ccc([N+](=O)[O-])c(N)n1
T/C (dose: 100.0 mg/kg/injection, schedule: Q04DX003 (ip), vehicle: saline with Tween-80): 100 % of control
T/C (dose: 200.0 mg/kg/injection, schedule: Q04DX003 (ip), vehicle: saline with Tween-80): 107 % of control
T/C (dose: 400.0 mg/kg/injection, schedule: Q04DX003 (ip), vehicle: saline with Tween-80): 97 % of control

CC(=O)OC[C@@]1(C)[C@@H]2CC[C@]3(C)[C@H](C(=O)C=C4[C@@H]5CC(C)(C)CC[C@]5(C(=O)O)CC[C@]43C)[C@@]2(C)CC[C@@H]1OC(C)=O
T/C [2]: 108 % of control
T/C [3]: 87 % of control and 95 % of control
T/C [11]: 93 % of control

CC(=O)Nc1nccs1.CC(=O)Nc1nccs1.[Cl][Pt][Cl]
T/C (dose: 100.0 mg/kg/injection, schedule: Q04DX002 (ip), vehicle: saline with Tween-80): 93 % of control
T/C (dose: 200.0 mg/kg/injection, schedule: Q04DX002 (ip), vehicle: saline with Tween-80): 91 % of control

O=C(Nc1ccccc1)Nc1ccc2c(c1)C(=O)CCCC2
T/C [3]: 96 % of control
T/C [11]: 93 % of control
T/C [12]: 94 % of control

C=C1C(=O)OC2/C=C(\C)CC/C=C(\C(=O)O)CC/C=C(/C)CCC12 (configuration not stated)
T/C (dose: 5.0 mg/kg/injection, schedule: Q01DX005 (ip), vehicle: Klucel (hydroxypropylcellulose) (HPC)): 100 % of control
T/C (dose: 10.0 mg/kg/injection, schedule: Q01DX005 (ip), vehicle: Klucel (hydroxypropylcellulose) (HPC)): 117 % of control
T/C (dose: 20.0 mg/kg/injection, schedule: Q01DX005 (ip), vehicle: Klucel (hydroxypropylcellulose) (HPC)): 118 % of control
T/C (dose: 40.0 mg/kg/injection, schedule: Q01DX005 (ip), vehicle: Klucel (hydroxypropylcellulose) (HPC)): 115 % of control
T/C (dose: 80.0 mg/kg/injection, schedule: Q01DX005 (ip), vehicle: Klucel (hydroxypropylcellulose) (HPC)): 115 % of control

O=C(O)CCC12CCCCC1=NC1(CCCCC1)NC2=O (configuration not stated)
T/C (dose: 60.0 mg/kg/injection, schedule: Q01DX005 (ip), vehicle: Klucel (hydroxypropylcellulose) (HPC)): 104 % of control
T/C (dose: 60.0 mg/kg/injection, schedule: Q02DX002 (ip), vehicle: Klucel (hydroxypropylcellulose) (HPC)): 102 % of control
T/C (dose: 120.0 mg/kg/injection, schedule: Q01DX005 (ip), vehicle: Klucel (hydroxypropylcellulose) (HPC)): 100 % of control
T/C (dose: 120.0 mg/kg/injection, schedule: Q02DX002 (ip), vehicle: Klucel (hydroxypropylcellulose) (HPC)): 97 % of control
T/C (dose: 240.0 mg/kg/injection, schedule: Q01DX005 (ip), vehicle: Klucel (hydroxypropylcellulose) (HPC)): 100 % of control
T/C (dose: 240.0 mg/kg/injection, schedule: Q02DX002 (ip), vehicle: Klucel (hydroxypropylcellulose) (HPC)): 103 % of control

CCOCCC(=NC(C)(C)C)Nc1ccccc1C
T/C [6]: 107 % of control
T/C [7]: 115 % of control

Cc1cc(Br)c(N)c(C(O)(C(F)(F)F)C(F)(F)F)c1
T/C (dose: 50.0 mg/kg/injection, schedule: Q01DX009 (ip), vehicle: Klucel (hydroxypropylcellulose) (HPC)): 91 % of control
T/C (dose: 100.0 mg/kg/injection, schedule: Q01DX009 (ip), vehicle: Klucel (hydroxypropylcellulose) (HPC)): 97 % of control
T/C (dose: 200.0 mg/kg/injection, schedule: Q01DX009 (ip), vehicle: Klucel (hydroxypropylcellulose) (HPC)): 108 % of control

Cc1ccccc1CC(C)c1ccccc1 (configuration not stated)
T/C [8]: 100 % of control
T/C [9]: 123 % of control

CC1CN1P(=S)(N1CCCCC1)N1CC1C (configuration not stated)
T/C (dose: 25.0 mg/kg/injection, schedule: Q01DX009 (ip), vehicle: suspension in saline): 100 % of control
T/C (dose: 50.0 mg/kg/injection, schedule: Q01DX009 (ip), vehicle: suspension in saline): 96 % of control
T/C (dose: 100.0 mg/kg/injection, schedule: Q01DX009 (ip), vehicle: suspension in saline): 102 % of control
T/C (dose: 200.0 mg/kg/injection, schedule: Q01DX009 (ip), vehicle: suspension in saline): 105 % of control

CC(NC(=O)C1CC(O)CN1C(=O)CN)C(=O)O (configuration not stated)
T/C [13]: 96 % of control
T/C [14]: 110 % of control
T/C [15]: 94 % of control

CCOP(=O)(OCC)C(N)Cc1c[nH]c2ccccc12 (configuration not stated)
T/C (dose: 50.0 mg/kg/injection, schedule: Q01DX005 (ip), vehicle: saline): 101 % of control
T/C (dose: 100.0 mg/kg/injection, schedule: Q01DX005 (ip), vehicle: saline): 104 % of control

Cc1nc2[nH]cc(-c3ccccc3)c2c(=N)n1-c1ccc(F)cc1
T/C (dose: 6.25 mg/kg/injection, schedule: Q01DX005 (ip), vehicle: Klucel (hydroxypropylcellulose) (HPC)): 101 % of control
T/C (dose: 12.5 mg/kg/injection, schedule: Q01DX005 (ip), vehicle: Klucel (hydroxypropylcellulose) (HPC)): 101 % of control
T/C (dose: 25.0 mg/kg/injection, schedule: Q01DX005 (ip), vehicle: Klucel (hydroxypropylcellulose) (HPC)): 102 % of control

CCCNC(=O)CCC(NS(=O)(=O)c1ccccc1)C(=O)O (configuration not stated)
T/C (dose: 100.0 mg/kg/injection, schedule: Q04DX002 (ip), vehicle: Klucel (hydroxypropylcellulose) (HPC)): 91 % of control
T/C (dose: 200.0 mg/kg/injection, schedule: Q04DX002 (ip), vehicle: Klucel (hydroxypropylcellulose) (HPC)): 102 % of control
T/C (dose: 400.0 mg/kg/injection, schedule: Q04DX002 (ip), vehicle: Klucel (hydroxypropylcellulose) (HPC)): 96 % of control

COc1ccccc1N/N=c1/c2n(-c3ccc(Cl)cc3)c(=S)n(-c3ccccn3)c1=NCCN=2
T/C [1]: 97 % of control
T/C [2]: 100 % of control
T/C [3]: 102 % of control and 94 % of control

NC(=S)N/N=C/c1c(-c2ccc(Cl)cc2)nc2sccn12
T/C (dose: 100.0 mg/kg/injection, schedule: Q01DX001 (ip), vehicle: Klucel (hydroxypropylcellulose) (HPC)): 96 % of control
T/C (dose: 200.0 mg/kg/injection, schedule: Q01DX001 (ip), vehicle: Klucel (hydroxypropylcellulose) (HPC)): 95 % of control
T/C (dose: 400.0 mg/kg/injection, schedule: Q01DX001 (ip), vehicle: Klucel (hydroxypropylcellulose) (HPC)): 96 % of control

C[C@@H]1CCC[C@@H](NC(=O)N(CCCl)N=O)C1
T/C (dose: 18.75 mg/kg/injection, schedule: Q01DX009 (ip), vehicle: Klucel (hydroxypropylcellulose) (HPC)): 176 % of control
T/C (dose: 37.5 mg/kg/injection, schedule: Q01DX009 (ip), vehicle: Klucel (hydroxypropylcellulose) (HPC)): 193 % of control
T/C (dose: 75.0 mg/kg/injection, schedule: Q01DX009 (ip), vehicle: Klucel (hydroxypropylcellulose) (HPC)): 249 % of control

CSCCC(NC(=O)C(Cc1ccccc1)NC(=O)CNC(=O)CNC(=O)C(N)Cc1ccc(O)cc1)C(=O)O (configuration not stated)
T/C [3]: 101 % of control
T/C [11]: 92 % of control
T/C [12]: 92 % of control

O=C(Nc1ccc(Cl)cc1)Nc1nnc(-c2cccc(Cl)c2)o1
T/C (dose: 7.5 mg/kg/injection, schedule: Q01DX005 (ip), vehicle: saline with Tween-80): 95 % of control
T/C (dose: 15.0 mg/kg/injection, schedule: Q01DX005 (ip), vehicle: saline with Tween-80): 90 % of control and 93 % of control
T/C [10]: 89 % of control
T/C (dose: 240.0 mg/kg/injection, schedule: Q01DX005 (ip), vehicle: saline with Tween-80): 91 % of control

NC(=O)c1ccc([N+](=O)[O-])o1
T/C [4]: 99 % of control
T/C [5]: 100 % of control
T/C [6]: 95 % of control
T/C [7]: 108 % of control

Cc1ccc(S(=O)(=O)C(C#N)CCC(=O)c2ccc(Cl)cc2)cc1 (configuration not stated)
T/C [13]: 107 % of control
T/C [14]: 106 % of control
T/C [15]: 105 % of control
